Experiments:
[1] = system: maximal electroshock seizure (MES-induced seizure spread); assay: Maximal electroshock seizure (MES) test, mouse; type: in vivo, mice
Protocol: Anticonvulsant activity was determined using the standard MES model for generalized tonic-clonic seizures (Swinyard E A, Woodhead J H, White H S, Franklin M R, In: Levy R H, Mattson R H, Meldrum B S, Penry J K, Dreifuss F E eds. Antiepileptic drugs. New York: Raven Press, 1989:85–102).
An electric stimulus of 0.2 sec duration, 60 Hz, 50 mA in mice, 150 mA in rats, was delivered via corneal electrodes primed with an electrolyte solution containing an anesthetic agent (0.5% tetracaine hydrochloride in 0.9% saline).
Mice or rats were randomly selected into control and test groups. The animals were dosed with vehicle or test compound, at varying concentrations. […] Rats were subjected to electrical stimulus at time intervals between 15 minutes and 4 hours following administration of test compound. Abolition of the hind limb tonic extensor component was an indication of the test compound's ability to inhibit MES-induced seizure spread.
The ED50 (the calculated dose required to block the hindlimb tonic-extensor component of the maximal electroshock seizure in 50% of the animals tested) was calculated. A probit analysis (Finney D J. Probit Analysis. Cambridge, England: Cambridge University Press, 1971) was used to calculate the ED50.
Following the mouse procedure described above, representative compounds of the instant invention were tested for biological activity in the mouse, with results as listed in Table 5. Mouse activity is listed as number of mice active/total number of mice tested @ time after administration of the test compound.

[2] = system: maximal electroshock seizure (MES-induced seizure spread); assay: Maximal electroshock seizure (MES) test, rat; type: in vivo, rats
Protocol: Anticonvulsant activity was determined using the standard MES model for generalized tonic-clonic seizures (Swinyard E A, Woodhead J H, White H S, Franklin M R, In: […], Meldrum […], Dreifuss F E eds. Antiepileptic drugs. New York: Raven Press, 1989:85-102). An electric stimulus of 0.2 sec duration, 60 Hz, 50 mA in mice, 150 mA in rats, was delivered via corneal electrodes primed with an electrolyte solution containing an anesthetic agent (0.5% tetracaine hydrochloride in 0.9% saline). Mice or rats were randomly selected into control and test groups. The animals were dosed with vehicle or test compound, at varying concentrations. Mice were subjected to the electrical stimulus at 30 minutes and 4 hours following administration of test compound. […] Abolition of the hind limb tonic extensor component was an indication of the test compound's ability to inhibit MES-induced seizure spread. […] A probit analysis (Finney D J. Probit Analysis. Cambridge, England: Cambridge University Press, 1971) was used to calculate the ED50. Following the rat procedure described above, representative compounds of the instant invention were tested for biological activity in the rat, with results as listed in Table 6 and 7. Rat activity is listed as number of rats active/total number of rats tested @ time after administration of the test compound.

[3] = 300 mg/kg, @ 0.5 hrs after administration
[4] = 300 mg/kg, @ 4 hrs after administration
[5] = 100 mg/kg, @ 4 hrs after administration
[6] = 100 mg/kg, @ 0.5 hrs after administration

COC(=O)CCCNS(=O)(=O)OCC12OCC3OC(C)(C)OC3C1OC(C)(C)O2 (centres unmarked) [Compound 8]
Mouse Activity (number of mice active/total number of mice tested) [1, 3]: 1/1 @ 0.5 hrs | Mouse Activity ([1]; dosage 30, 100 mg/kg): No activity

CC1(C)OC2[C@@H](CO[C@@]3(COS(=O)(=O)NO)OC(C)(C)O[C@@H]23)O1 (stereo partly drawn) [Compound 9, N-hydroxy-2,3:4,5-bis-O-(1-methylethylidene)-β-D-fructopyranose sulfamate]
Mouse Activity (number of mice active/total number of mice tested) [1, 4]: 1/1 @ 4 hrs | Mouse Activity ([1]; dosage 30 mg/kg): No activity | ED50 ([2]; @ 4 hrs): 68.72 @ 4 hrs m/k | Rat Activity (oral) (number of rats active/total number of rats tested) ([2]; 30 mg/kg, @ 1 hr): 1/4 @ 1 hr | Rat Activity (oral) (number of rats active/total number of rats tested) ([2]; 30 mg/kg, @ 2 hrs): 2/4 @ 2 hrs | Rat Activity (oral) (number of rats active/total number of rats tested) ([2]; 30 mg/kg, @ 4 hrs): 1/4 @ 4 hrs

CC(C)(C)OC(=O)NS(=O)(=O)OC[C@@]12OC[C@H]3OC(C)(C)OC3[C@@H]1OC(C)(C)O2 (stereo partly drawn) [Compound 14, N-t-butoxycarbonyl-2,3:4,5-bis-O-(1-methylethylidene)-β-D-fructopyranose sulfamate]
Mouse Activity ([1]; dosage 30, 100, 300 mg/kg): No activity | Rat Activity (oral) (number of rats active/total number of rats tested) ([2]; 30 mg/kg, @ 2 hrs): 3/4 @ 2 hrs | Rat Activity (oral) (number of rats active/total number of rats tested) ([2]; 30 mg/kg, @ 4 hrs): 4/4 @ 4 hrs

CON(C)S(=O)(=O)OCC12OCC3OC(C)(C)OC3C1OC(C)(C)O2 (centres unmarked) [Compound 11]
Mouse Activity ([1]; dosage 30, 100, 300 mg/kg): No activity | ED50 ([2]; @ 4 hrs): 26.75 @ 4 hrs m/k | Rat Activity (oral) (number of rats active/total number of rats tested) ([2]; 30 mg/kg, @ 0.5 hrs): 2/3 @ 0.5 hrs | Rat Activity (oral) (number of rats active/total number of rats tested) ([2]; 30 mg/kg, @ 2 hrs): 2/3 @ 2 hrs | Rat Activity (oral) (number of rats active/total number of rats tested) ([2]; 30 mg/kg, @ 4 hrs): 2/3 @ 4 hrs

CN(O)S(=O)(=O)OCC12OCC3OC(C)(C)OC3C1OC(C)(C)O2 (centres unmarked) [Compound 12]
Mouse Activity ([1]; dosage 30, 100, 300 mg/kg): No activity | Rat Activity (oral) (number of rats active/total number of rats tested) ([2]; 15 mg/kg, @ 1 hr): 1/4 @ 1 hr

CC1(C)OC2COC3(COS(=O)(=O)NC(=O)O[Si](c4ccccc4)(c4ccccc4)c4ccccc4)OC(C)(C)OC3C2O1 (centres unmarked) [Compound 13]
Mouse Activity ([1]; dosage 30, 100, 300 mg/kg): No activity | Rat Activity (oral) (number of rats active/total number of rats tested) ([2]; 30 mg/kg, @ 0.5 hrs): 1/4 @ 0.5 hrs | Rat Activity (oral) (number of rats active/total number of rats tested) ([2]; 30 mg/kg, @ 1 hr): 1/4 @ 1 hr

CC1(C)OC2[C@@H](CO[C@@]3(COS(=O)(=O)NC(=O)OCc4ccccc4)OC(C)(C)O[C@@H]23)O1 (stereo partly drawn) [Compound 15, N-benzyloxycarbonyl-2,3:4,5-bis-O-(1-methylethylidene)-β-D-fructopyranose sulfamate]
Mouse Activity (number of mice active/total number of mice tested) ([1]; 100 mg/kg, @ 1 hr after administration): 3/3 @ 1 hr | Mouse Activity (number of mice active/total number of mice tested) [1, 5]: 2/3 @ 4 hrs | Mouse Activity (number of mice active/total number of mice tested) [1, 3]: 1/1 @ 0.5 hrs | Mouse Activity (number of mice active/total number of mice tested) [1, 4]: 1/1 @ 4 hrs | Mouse Activity ([1]; dosage 30 mg/kg): No activity

CCOC(=O)CCNS(=O)(=O)OCC12OCC3OC(C)(C)OC3C1OC(C)(C)O2 (centres unmarked) [Compound 4]
Mouse Activity ([1]; dosage 30, 100, 300 mg/kg): No Activity | Rat Activity (oral) (number of rats active/total number of rats tested) ([2]; 30 mg/kg, @ 1 hr): 1/4 @ 1 hr

CC1(C)O[C@@H]2[C@@H](CO[C@@]3(COS(=O)(=O)[N-]C(=O)OCc4ccccc4)OC(C)(C)O[C@@H]23)O1.[Na+] [Compound 17, N-(benzyloxy-carbonyl)-2,3:4,5-bis-O-(1-methylethylidene)-β-D-fructopyranose sulfamate sodium salt]
ED50 ([2]; @ 4 hrs): 10.37 @ 4 hrs, m/k | ED50 ([2]; @ 6 hrs): 3.26 @ 6 hrs m/k | Rat Activity (oral) (number of rats active/total number of rats tested) ([2]; 30 mg/kg, @ 0.25 hrs): 1/4 @ 0.25 hrs | Rat Activity (oral) (number of rats active/total number of rats tested) ([2]; 30 mg/kg, @ 0.5 hrs): 2/4 @ 0.5 hrs | Rat Activity (oral) (number of rats active/total number of rats tested) ([2]; 30 mg/kg, @ 1 hr): 1/4 @ 1 hr | Rat Activity (oral) (number of rats active/total number of rats tested) ([2]; 30 mg/kg, @ 2 hrs): 4/4 @ 2 hrs | Rat Activity (oral) (number of rats active/total number of rats tested) ([2]; 30 mg/kg, @ 4 hrs): 4/4 @ 4 hrs

CC(C)Oc1ccccc1N1CCN(S(=O)(=O)OCC23OCC4OC(C)(C)OC4C2OC(C)(C)O3)CC1 (centres unmarked) [Compound 39]
Mouse Activity ([1]; dosage 30, 100, 300 mg/kg): No activity | Rat Activity (oral) (number of rats active/total number of rats tested) ([2]; 30 mg/kg, @ 4 hrs): 1/4 @ 4 hrs

CONS(=O)(=O)OCC12OCC3OC(C)(C)OC3C1OC(C)(C)O2 (centres unmarked) [Compound 10]
Mouse Activity (number of mice active/total number of mice tested) [1, 3]: 1/1 @ 0.5 hrs | Mouse Activity (number of mice active/total number of mice tested) [1, 4]: 1/1 @ 4 hrs | Mouse Activity ([1]; dosage 30, 100 mg/kg): No activity

CC1(C)OC2[C@@H](CO[C@@]3(COS(=O)(=O)NS(=O)(=O)C(F)(F)F)OC(C)(C)O[C@@H]23)O1 (stereo partly drawn) [Compound 30, N-trifluoromethylsulfonyl-2,3:4,5-bis-O-(1-methylethylidene)-β-D-fructopyranose sulfamate]
Mouse Activity (number of mice active/total number of mice tested) [1, 6]: 2/3 @ 0.5 hrs | Mouse Activity (number of mice active/total number of mice tested) [1, 5]: 3/3 @ 4 hrs | Mouse Activity (number of mice active/total number of mice tested) [1, 3]: 1/1 @ 0.5 hrs | Mouse Activity (number of mice active/total number of mice tested) [1, 4]: 1/1 @ 4 hrs | Mouse Activity ([1]; dosage 30 mg/kg): No activity | ED50 ([2]; @ 4 hrs): 2.38 @ 4 hrs m/k | Rat Activity (oral) (number of rats active/total number of rats tested) ([2]; 30 mg/kg, @ 0.25 hrs): 3/4 @ 0.25 hrs | Rat Activity (oral) (number of rats active/total number of rats tested) ([2]; 30 mg/kg, @ 0.5 hrs): 4/4 @ 0.5 hrs | Rat Activity (oral) (number of rats active/total number of rats tested) ([2]; 30 mg/kg, @ 1 hr): 3/4 @ 1 hr | Rat Activity (oral) (number of rats active/total number of rats tested) ([2]; 30 mg/kg, @ 2 hrs): 4/4 @ 2 hrs | Rat Activity (oral) (number of rats active/total number of rats tested) ([2]; 30 mg/kg, @ 4 hrs): 4/4 @ 4 hrs

CC1(C)OC2COC3(COS(=O)(=O)N[Si](c4ccccc4)(c4ccccc4)c4ccccc4)OC(C)(C)OC3C2O1 (centres unmarked) [Compound 6]
Mouse Activity ([1]; dosage 30, 100, 300 mg/kg): No activity

CC(=O)[N-]S(=O)(=O)OC[C@@]12OC[C@H]3OC(C)(C)OC3[C@@H]1OC(C)(C)O2.[Na+] (stereo partly drawn) [Compound 18, N-acetyl-2,3:4,5-bis-O-(1-methylethylidene)-β-D-fructopyranose sulfamate sodium salt]
Mouse Activity (number of mice active/total number of mice tested) [1, 6]: 1/3 @ 0.5 hrs | Mouse Activity (number of mice active/total number of mice tested) [1, 5]: 2/3 @ 4 hrs | Mouse Activity (number of mice active/total number of mice tested) [1, 3]: 1/1 @ 0.5 hrs | Mouse Activity (number of mice active/total number of mice tested) [1, 4]: 1/1 @ 4 hrs | Mouse Activity ([1]; dosage 30 mg/kg): No activity | Rat Activity (oral) (number of rats active/total number of rats tested) ([2]; 30 mg/kg, @ 0.25 hrs): 1/4 @ 0.25 hrs | Rat Activity (oral) (number of rats active/total number of rats tested) ([2]; 30 mg/kg, @ 0.5 hrs): 1/4 @ 0.5 hrs | Rat Activity (oral) (number of rats active/total number of rats tested) ([2]; 30 mg/kg, @ 2 hrs): 1/4 @ 2 hrs | Rat Activity (oral) (number of rats active/total number of rats tested) ([2]; 30 mg/kg, @ 4 hrs): 3/4 @ 4 hrs

COC(=O)CNS(=O)(=O)OCC12OCC3OC(C)(C)OC3C1OC(C)(C)O2 (centres unmarked) [Compound 5]
Mouse Activity ([1]; dosage 30, 100, 300 mg/kg): No activity | ED50 ([2]; @ 2 hrs): >80 @ 2 hrs m/k | Rat Activity (oral) (number of rats active/total number of rats tested) ([2]; 30 mg/kg, @ 2 hrs): 3/4 @ 2 hrs | Rat Activity (oral) (number of rats active/total number of rats tested) ([2]; 30 mg/kg, @ 4 hrs): 1/4 @ 4 hrs

CC1(C)OC2COC3(COS(=O)(=O)NCCC(=O)O)OC(C)(C)OC3C2O1 (centres unmarked) [Compound 35]
Mouse Activity (number of mice active/total number of mice tested) [1, 3]: 1/1 @ 0.5 hrs | Mouse Activity ([1]; dosage 30, 100 mg/kg): No Activity

C=CCNS(=O)(=O)OC[C@@]12OC[C@H]3OC(C)(C)OC3[C@@H]1OC(C)(C)O2 (stereo partly drawn) [Compound 2, N-allyl-2,3:4,5-bis-O-(1-methylethylidene)-β-D-fructopyranose sulfamate]
ED50 ([2]; @ 2 hrs): 11.89 @ 2 hrs m/k | Rat Activity (oral) (number of rats active/total number of rats tested) ([2]; 8 mg/kg, @ 2 hrs): 3/4 @ 2 hrs | Rat Activity (oral) (number of rats active/total number of rats tested) ([2]; 8 mg/kg, @ 4 hrs): 2/4 @ 4 hrs | Rat Activity (oral) (number of rats active/total number of rats tested) ([2]; 8 mg/kg, @ 6 hrs): 1/4 @ 6 hrs | Rat Activity (oral) (number of rats active/total number of rats tested) ([2]; 8 mg/kg, @ 8 hrs): 1/4 @ 8 hrs | Rat Activity (oral) (number of rats active/total number of rats tested) ([2]; 20 mg/kg, @ 0.5 hrs): 1/4 @ 0.5 hrs | Rat Activity (oral) (number of rats active/total number of rats tested) ([2]; 20 mg/kg, @ 2 hrs): 2/2 @ 2 hrs | Rat Activity (oral) (number of rats active/total number of rats tested) ([2]; 20 mg/kg, @ 4 hrs): 1/2 @ 4 hrs | Rat Activity (oral) (number of rats active/total number of rats tested) ([2]; 20 mg/kg, @ 6 hrs): 1/2 @ 6 hrs | Rat Activity (oral) (number of rats active/total number of rats tested) ([2]; 200 mg/kg, @ 1 hr): 3/8 @ 1 hr | Rat Activity (oral) (number of rats active/total number of rats tested) ([2]; 200 mg/kg, @ 2 hrs): 4/8 @ 2 hrs | Rat Activity (oral) (number of rats active/total number of rats tested) ([2]; 200 mg/kg, @ 4 hrs): 2/8 @ 4 hrs | Rat Activity (oral) (number of rats active/total number of rats tested) ([2]; 200 mg/kg, @ 6 hrs): 1/8 @ 6 hrs

Reference: patent US7060725B2, “Substituted sulfamate anticonvulsant derivatives” (Janssen Pharmaceutica N.V., priority 2002, dated 2006)
